Measurements reported in article PMC12000319, “Proton conductance by human uncoupling protein 1 is inhibited by purine and pyrimidine nucleotides” (The EMBO Journal, 2025).
Values joined by “and” are separate entries in the source; they are usually repeats but may differ in a detail not shown here. Equal entries are not always repeated.

What was measured:
[1] = molecular target: T1, human OGC (SLC25A11) (Homo sapiens, UniProt Q02978); test: Differential scanning fluorimetry (nanoDSF) thermal stability shift assay; format: binding; conditions: 1 mM nucleotide, pH 6.0, single repeats (source data Fig. 4A)
T1 construct: His8 (N, cleaved yes); Factor Xa protease cleavage site (N, cleaved yes); made in house; host or cells: Saccharomyces cerevisiae strain W303.1B
T1 sequence (Q02978 1-314): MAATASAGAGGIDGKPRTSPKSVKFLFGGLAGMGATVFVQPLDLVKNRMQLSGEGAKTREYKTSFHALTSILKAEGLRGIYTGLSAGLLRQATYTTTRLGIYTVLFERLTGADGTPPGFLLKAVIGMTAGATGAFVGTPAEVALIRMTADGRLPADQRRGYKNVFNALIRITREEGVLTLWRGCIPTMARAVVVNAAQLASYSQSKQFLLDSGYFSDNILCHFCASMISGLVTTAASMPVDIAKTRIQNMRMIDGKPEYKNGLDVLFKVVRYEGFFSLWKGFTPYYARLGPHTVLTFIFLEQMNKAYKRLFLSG
Text: (§1) UCP1 is phylogenetically related to mitochondrial dicarboxylate carriers, gaining thermogenic properties as a later evolutionary development (Hughes et al, [2009]; Robinson et al, [2008]). The mitochondrial dicarboxylate carrier (DIC, SLC25A10) and oxoglutarate carrier (OGC, SLC25A11) are most closely related to UCP1 (Gaudry et al, [2019]; Hughes et al, [2009]) and share many residues involved in nucleotide binding in UCP1, such as the arginine triplet at the contact points, R92 and Q85 (Jones et al, [2024]). Given the similarity of the central cavity of UCP1, OGC and DIC, we tested whether the dicarboxylate carriers have the ability to bind nucleotides. For this purpose, we purified human DIC and OGC, and tested whether nucleotides were able to generate a thermostability shift, as observed for their physiological substrates (Pyrihová et al, [2024]). However, all tested nucleotides caused a negligible shift with both DIC or OGC at all pH values tested between 6.0 and 8.0 (Fig. 4A; Appendix Fig. S5). Thus, despite having many residues in common (Fig. 4B–D), UCP1 has evolved to have a few specific residues that allow high-affinity binding of nucleotides without a strong selection for nucleobase.
(§2) Differential scanning fluorimetry (nanoDSF) (Alexandrov et al, [2008]) was carried out with 2 µg UCP1, DIC or OGC protein (100 mM MES/HEPES, pH range 6.0–8.0, 25 mM NaCl, 1 mM TCEP, 0.01% lauryl maltose neopentyl glycol and 0.01 mg/mL tetraoleoyl cardiolipin) and, when required, 1 mM nucleotide, as indicated. The proteins have the following number of tryptophans: UCP1 (two); OGC (two); DIC (one). The samples were loaded into nanoDSF-grade standard glass capillaries. The temperature was increased by […] every minute from 25 to 95 °C, the intrinsic fluorescence was measured in a Prometheus NT.48 nanoDSF device, and the apparent Tm was calculated with the PR.ThermControl software (NanoTemper Technologies).

[2] = molecular target: T2, human DIC (SLC25A10) (Homo sapiens, UniProt Q9UBX3); test: as above; format: binding; conditions: 1 mM nucleotide, pH 6.0, single repeats (source data Fig. 4A)
T2 construct: His8 (N, cleaved yes); Factor Xa protease cleavage site (N, cleaved yes); made in house; host or cells: Saccharomyces cerevisiae protease-deficient strain BJ2186
T2 sequence (Q9UBX3 1-287): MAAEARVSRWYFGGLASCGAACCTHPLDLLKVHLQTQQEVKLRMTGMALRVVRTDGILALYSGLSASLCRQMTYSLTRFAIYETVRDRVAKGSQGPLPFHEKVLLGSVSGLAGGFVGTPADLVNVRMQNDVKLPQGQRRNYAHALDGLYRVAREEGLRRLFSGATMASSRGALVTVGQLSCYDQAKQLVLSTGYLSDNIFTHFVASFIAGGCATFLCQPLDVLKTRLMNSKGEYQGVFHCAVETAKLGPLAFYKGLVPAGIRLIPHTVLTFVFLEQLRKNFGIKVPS
Text: as §1, §2

[3] = molecular target: T3, UCP1 (Homo sapiens, UniProt P25874); test: Isothermal titration calorimetry of nucleotide binding; parameters: isotherm data point (enthalpy change per injection): unit not given here; conditions: for isotherm data point (enthalpy change per injection): representative isotherm;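 for all read-outs here: purified human UCP1 in cacodylate buffer with lauryl maltose neopentyl glycol and cardiolipin, titrated with nucleotides, isotherms fitted by one-site model yielding ΔH, Kd and stoichiometry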
T3 construct: His8 (N, cleaved yes); Factor Xa protease cleavage site (N, cleaved yes); made in house; host or cells: Saccharomyces cerevisiae strain W303.1B
T3 sequence (P25874 1-307): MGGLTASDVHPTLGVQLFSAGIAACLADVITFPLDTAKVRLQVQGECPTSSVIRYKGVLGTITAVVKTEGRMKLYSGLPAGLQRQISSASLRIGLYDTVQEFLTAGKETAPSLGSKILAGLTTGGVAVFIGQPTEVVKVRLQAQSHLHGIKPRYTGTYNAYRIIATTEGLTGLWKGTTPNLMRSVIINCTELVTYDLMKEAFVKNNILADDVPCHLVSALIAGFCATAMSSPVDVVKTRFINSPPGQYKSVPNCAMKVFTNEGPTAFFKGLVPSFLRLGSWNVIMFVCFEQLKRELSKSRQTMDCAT

## Nc1ncnc2c1ncn2[C@@H]1O[C@H](COP(=O)(O)OP(=O)(O)OP(=O)(O)O)[C@@H](O)[C@H]1O [ATP, adenosine triphosphate]
[1]
  change in apparent melting temperature (ΔTm) of hOGC: 0.7 and 0.4
[2]
  change in apparent melting temperature (ΔTm) of hDIC: 1.0 and 0.5 and 0.8
[3]; ITC
  binding affinity to UCP1 (in words): highest binding affinities
[3]; ITC, pH 6.0, 20 °C, mean ± standard deviation of three biological repeats (Fig. 2A-E)
  Kd: 880 ± 120 nM
[3]; ITC, single biological repeats (source data Fig. 2F)
  Kd: 810 nM and 800 nM and 1020 nM
[3]; Molar ratio (Nucleotide/UCP) 0.120417, pH 6.0, 20 °C
  isotherm data point (enthalpy change per injection): -35.3409
[3]; Molar ratio (Nucleotide/UCP) 0.428528, pH 6.0, 20 °C
  isotherm data point (enthalpy change per injection): -34.4517
[3]; Molar ratio (Nucleotide/UCP) 0.491383, pH 6.0, 20 °C
  isotherm data point (enthalpy change per injection): -33.5364
[3]; Molar ratio (Nucleotide/UCP) 0.554656, pH 6.0, 20 °C
  isotherm data point (enthalpy change per injection): -34.076
[3]; Molar ratio (Nucleotide/UCP) 0.618348, pH 6.0, 20 °C
  isotherm data point (enthalpy change per injection): -33.0757
[3]; Molar ratio (Nucleotide/UCP) 0.682464, pH 6.0, 20 °C
  isotherm data point (enthalpy change per injection): -31.8617
[3]; Molar ratio (Nucleotide/UCP) 0.811976, pH 6.0, 20 °C
  isotherm data point (enthalpy change per injection): -26.1456
[3]; Molar ratio (Nucleotide/UCP) 0.877378, pH 6.0, 20 °C
  isotherm data point (enthalpy change per injection): -22.2535
[3]; Molar ratio (Nucleotide/UCP) 0.943214, pH 6.0, 20 °C
  isotherm data point (enthalpy change per injection): -16.8687
[3]; Molar ratio (Nucleotide/UCP) 1.0762, pH 6.0, 20 °C
  isotherm data point (enthalpy change per injection): -7.301
[3]; Molar ratio (Nucleotide/UCP) 1.14336, pH 6.0, 20 °C
  isotherm data point (enthalpy change per injection): -4.354
[3]; Molar ratio (Nucleotide/UCP) 1.21096, pH 6.0, 20 °C
  isotherm data point (enthalpy change per injection): -2.46
[3]; Molar ratio (Nucleotide/UCP) 1.41647, pH 6.0, 20 °C
  isotherm data point (enthalpy change per injection): -1.066
[3]; Molar ratio (Nucleotide/UCP) 1.69692, pH 6.0, 20 °C
  isotherm data point (enthalpy change per injection): -0.2462
[3]; Molar ratio (Nucleotide/UCP) 1.76819, pH 6.0, 20 °C
  isotherm data point (enthalpy change per injection): 0.1511
[3]; Molar ratio (Nucleotide/UCP) 1.91217, pH 6.0, 20 °C
  isotherm data point (enthalpy change per injection): -0.4754
[3]; Molar ratio (Nucleotide/UCP) 1.98488, pH 6.0, 20 °C
  isotherm data point (enthalpy change per injection): 0.1711
